Holding throughout (test): ≥ marks a high value that may be exact or a test limit, other limits are often not marked, values filed in µg/mL are converted to µM
Assay [1] has as its system Aspergillus flavus LM247.
In assay [2] the test system is Aspergillus flavus LM26.
Assay [3] has as its system Candida albicans LM106.
Assay [4] concerns Candida albicans LM108.
Assay [5] relates to Candida tropicalis ATCC 13803.
For assay [6], the system named is Trichophyton rubrum LM640.
In assay [7] the test system is Bacillus subtilis SMY.
The test system of assay [8] is Bacillus subtilis.
Assay [9] concerns Candida albicans ATCC 90028.
The subject of assay [10] is Candida albicans.
Assay [11] has as its system Candida parapsilosis ATCC 22019.
Assay [12] deals with Cryptococcus neoformans.
Assay [13] relates to Enterococcus faecium ATCC 19434.
For assay [14], the system named is Escherichia coli ATCC 23716.
The subject of assay [15] is Escherichia coli O157:H7 ATCC 43895.
The test system of assay [16] is Escherichia coli.
Assay [17] relates to Pseudomonas aeruginosa 1.
In assay [18] the test system is Pseudomonas aeruginosa ATCC 27853.
Assay [19] has as its system Pseudomonas aeruginosa.
Assay [20] deals with Pseudomonas putida.
The test system of assay [21] is Saccharomyces cerevisiae.
Assay [22] deals with Salmonella typhimurium ATCC 19430.
The test system of assay [23] is Salmonella typhimurium.
In assay [24] the test system is Serratia marcescens.
Assay [25] has as its system Staphylococcus aureus 1.
In assay [26] the test system is Staphylococcus aureus ATCC 25923.
Assay [27] deals with Streptococcus mutans.
Assay [28] deals with Streptococcus pneumoniae.
For assay [29], the system named is Trichophyton rubrum KCTC 6345.
Assay [30] concerns Trichosporon beigelii KCTC 7707.
For assay [31], the system named is Aspergillus fumigatus.
The test system of assay [32] is Bacillus subtilis ATCC 6633.
The test system of assay [33] is Escherichia coli ATCC 10536.
Assay [34] concerns Klebsiella pneumoniae ATCC 27736.
Assay [35] deals with Pseudomonas aeruginosa ATCC BAA-427.
Assay [36] has as its system Sporothrix schenckii.
Assay [37] has as its system Staphylococcus aureus ATCC 9144.
Assay [38] concerns Staphylococcus aureus MR.
Assay [39] has as its system Staphylococcus epidermidis NRRL B-4268.
Assay [40] has as its system Trichophyton mentagrophytes.
In assay [41] the test system is Pseudomonas aeruginosa ATCC 47085.
The subject of assay [42] is Fusarium graminearum PH-1.
For assay [43], the system named is Candida albicans ATCC 10231.
For assay [44], the system named is Candida tropicalis PCM 2681.
Assay [45] relates to Escherichia coli ATCC 25922.
Assay [46] deals with Klebsiella pneumoniae ATCC 200603.
The test system of assay [47] is Pseudomonas aeruginosa ATCC 9027.
The subject of assay [48] is Staphylococcus epidermidis ATCC 14490.

The MIC is the smallest concentration in the dilution series that meets the test's criterion for growth inhibition. Read a high MIC as weaker potency.

In brackets after ≈: the same amount, converted by molar mass.

Consider `CC[C@H](C)[C@H](NC(=O)CNC(=O)[C@@H](NC(=O)[C@H](Cc1ccccc1)NC(=O)[C@H](CC(=O)O)NC(=O)[C@H](CCSC)NC(=O)[C@H](CC(=O)O)NC(=O)[C@H](C)N)[C@@H](C)O)C(=O)N[C@@H](C)C(=O)N[C@@H](CCC(=O)O)C(=O)N[C@@H](CO)C(=O)N[C@H](C(=O)N[C@H](C(=O)N[C@@H](CCCCN)C(=O)N[C@@H](CCCCN)C(=O)N[C@H](C(=O)N[C@@H](CCCCN)C(=O)N[C@@H](CCC(=O)O)C(=O)N[C@H](C(=O)N[C@@H](CC(N)=O)C(=O)N[C@@H](C)C(=O)N[C@@H](CCCCN)C(=O)N1CCC[C@H]1C(=O)N1CCC[C@H]1C(=O)N[C@@H](C)C(=O)O)[C@@H](C)O)[C@@H](C)CC)[C@@H](C)CC)[C@@H](C)CC` [ADMDFTGIAESIIKKIKETNAKPPA], for which the MIC in [1] is at least 47.6 µM; in [2], at least 47.6 µM; in [3], at least 47.6 µM; in assay [4] it was at least 381 µM; in assay [5] it was at least 47.6 µM; in assay [6] it was at least 381 µM.
Turning to `CC(C)C[C@H](NC(=O)CNC(=O)[C@H](C)N)C(=O)N[C@@H](CCC(N)=O)C(=O)N[C@@H](Cc1ccccc1)C(=O)N1CCC[C@H]1C(=O)N[C@H](C(=O)NCC(=O)N[C@@H](CCCN=C(N)N)C(=O)N[C@H](C(=O)N[C@@H](Cc1cnc[nH]1)C(=O)N[C@@H](CCCN=C(N)N)C(=O)N[C@@H](CC(C)C)C(=O)N[C@@H](CC(C)C)C(=O)N[C@@H](CCCN=C(N)N)C(=O)N[C@@H](CCCCN)C(=O)O)C(C)C)C(C)C` [AGLQFPVGRVHRLLRK], the minimum inhibitory concentration (MIC) in assay [7] was at least 139 µM; in assay [8] it was 2.17 µM (≈ 4 µg/mL); in assay [9] it was 12.5 µM (≈ 23.1 µg/mL); in assay [10], 4.33 µM (≈ 8 µg/mL); in [11], 25 µM (≈ 46.2 µg/mL); in assay [12], 4.33 µM (≈ 8 µg/mL). Further, the minimal inhibitory concentration (MIC) in [13] was 25 µM (≈ 46.2 µg/mL); in [14] it was at least 139 µM; in [15], 6.3 µM (≈ 11.6 µg/mL); in assay [16], 2.17 µM (≈ 4 µg/mL); in [17] it was 6.3 µM (≈ 11.6 µg/mL); in assay [18], 12.5 µM (≈ 23.1 µg/mL). The MIC in [19] is 12.5 µM (≈ 23.1 µg/mL); in assay [20], 2.17 µM (≈ 4 µg/mL); in assay [21] it was 4.33 µM (≈ 8 µg/mL); in assay [22], 6.3 µM (≈ 11.6 µg/mL); in assay [23], 1.08 µM (≈ 2 µg/mL); in assay [24], 1.08 µM (≈ 2 µg/mL). Moreover, the MIC in [25] stood at 12.5 µM (≈ 23.1 µg/mL); in assay [26], 25 µM (≈ 46.2 µg/mL); in [27], 2.17 µM (≈ 4 µg/mL); in assay [28] it was 2.17 µM (≈ 4 µg/mL); in assay [29], 12.5 µM (≈ 23.1 µg/mL); in assay [30] it was 12.5 µM (≈ 23.1 µg/mL).
As for `CC(C)C[C@H](NC(=O)[C@H](CCCCN)NC(=O)[C@H](CC(C)C)NC(=O)[C@H](Cc1ccccc1)NC(=O)[C@H](CCCN=C(N)N)NC(=O)[C@H](CCCN=C(N)N)NC(=O)[C@H](Cc1ccccc1)NC(=O)[C@H](Cc1c[nH]c2ccccc12)NC(=O)[C@H](CCCCN)NC(=O)[C@H](CCCN=C(N)N)NC(=O)[C@H](Cc1ccccc1)NC(=O)[C@H](CCCN=C(N)N)NC(=O)[C@H](CCCN=C(N)N)NC(=O)[C@@H](N)Cc1ccccc1)C(=O)N[C@@H](Cc1ccccc1)C(N)=O` [FRRFRKWFRRFLKLF], the MIC in assay [31] amounted to 3 µM (≈ 6.61 µg/mL); in assay [32], 11.3 µM (≈ 24.9 µg/mL); in [10] it was 3.1 µM (≈ 6.83 µg/mL); in assay [11] it was 3 µM (≈ 6.61 µg/mL); in assay [12], 6.1 µM (≈ 13.4 µg/mL); in [33], 6 µM (≈ 13.2 µg/mL). Besides, the MIC in [34] came out at 6 µM (≈ 13.2 µg/mL); in assay [35] it was 25 µM (≈ 55.1 µg/mL); in assay [36], 3 µM (≈ 6.61 µg/mL); in assay [37], 6.25 µM (≈ 13.8 µg/mL); in assay [38], 25 µM (≈ 55.1 µg/mL); in assay [39], 13.2 µM (≈ 29.1 µg/mL). The same compound yielded an MIC in assay [40] of 3 µM (≈ 6.61 µg/mL).
With `CC(C)C[C@H](NC(=O)CN)C(=O)N[C@@H](CC(C)C)C(=O)N[C@@H](CCCN=C(N)N)C(=O)N[C@@H](CCCCN)C(=O)N[C@@H](Cc1c[nH]c2ccccc12)C(=O)NCC(=O)N[C@@H](CCCCN)C(=O)N[C@@H](CCCCN)C(=O)N[C@@H](Cc1c[nH]c2ccccc12)C(=O)N[C@@H](CCCCN)C(=O)N[C@@H](CCC(=O)O)C(=O)N[C@@H](Cc1ccccc1)C(=O)N[C@@H](CC(C)C)C(=O)N[C@@H](CCCN=C(N)N)C(=O)N[C@@H](CCCN=C(N)N)C(=O)N[C@H](C(=O)N[C@@H](Cc1c[nH]c2ccccc12)C(=O)N[C@@H](CCCCN)C(N)=O)C(C)C` [GLLRKWGKKWKEFLRRVWK], the MIC in [41] and in assay [26] was 12.7 µM (≈ 32 µg/mL) throughout.
As to `C[C@@H]1NC(=O)[C@@H](NC(=O)[C@@H]2CCCN2C(=O)CN)CSSC[C@@H](C(=O)O)NC(=O)[C@H](CC(N)=O)NC(=O)[C@H](Cc2cnc[nH]2)NC(=O)[C@H](CC(=O)O)NC(=O)[C@H](CO)NC1=O` [GPCASDHNC], the MIC in assay [42] was at least 48 µM.
Consider `NC(=O)CC[C@H](NC(=O)[C@H](CCC(N)=O)NC(=O)[C@H](CCC(=O)O)NC(=O)[C@H](Cc1ccccc1)NC(=O)[C@H](CCC(=O)O)NC(=O)[C@H](Cc1c[nH]c2ccccc12)NC(=O)[C@H](CCC(=O)O)NC(=O)[C@H](Cc1ccccc1)NC(=O)[C@H](CCCN=C(N)N)NC(=O)[C@H](CCC(N)=O)NC(=O)[C@@H](N)CCC(N)=O)C(N)=O` [QQRFEWEFEQQ], for which the MIC in [32] is at least 329 µM; in [43], over 329 µM; in assay [44] it was at least 329 µM; in assay [45] it was over 329 µM; in assay [46], at least 329 µM; in [47], over 329 µM. Moreover, the MIC is over 329 µM in [26] and at least 329 µM in assay [48].

The values are drawn from DBAASP.
